For test [1], the system named is Frog (Rana pipiens) Skin. The format is cell-based. As for the experimental part: (§1) The biological potencies of alpha-MSH, the linear and cyclic analogues were determined by their ability to stimulate melanosome dispersion in vitro in the frog and lizard bioassays. This in vitro assay provides clear cut dose response curves (between 2.5×10^-11 and 4×10^-10 M) and can detect minimal concentration of alpha-MSH of about 10^-11 M. The assay is based upon the centrifugal dispersion of melanosomes (melanin granules) within the dendritic processes of integumental dermal melanophores leading to darkening of the skin. All the test solutions were prepared via serial dilutions from a stock solution (10^-4 M). The frogs (Rana pipiens) used in these evaluations were obtained from Kons Scientific, Germantown, Wis., and the lizards (Anolis carolinensis) were from the Snake Farm, La Place, La.

Test [2] relates to Lizard (Anolis carolinensis) Skin. The format is cell-based. As for the experimental part: as §1
For test [3], the system named is Frog (Rana pipiens) Skin. The settings on record: cited from earlier work; for Relative Potency Frog: relative to alpha-MSH = 1.0, selective fragments of alpha-MSH, previous research.
Test [4] has as its system Lizard (Anolis carolinensis) Skin. Particulars: relative to alpha-MSH = 1.0; selective fragments of alpha-MSH, previous research; cited from earlier work.
[5] abbreviates: cyclic analogues, alpha-MSH = 1.0.

Like-named read-outs stand apart in the source and are kept apart here. Positions of bridges follow the written chain, without caps; N, C: chain ends. Non-standard residues stand in square brackets, D forms with d. Residues, ends and D or L forms follow the SMILES beside them. Nle = CCCC[C@H](N)C(=O)O

Data on 14 compounds can be found in US5714576A, “Linear analogs of alpha-msh fragments” (Competitive Technologies, Inc., priority 1997, dated 1998).

In the case of `CCCC[C@H](NC(C)=O)C(=O)N[C@@H](CC(=O)O)C(=O)N[C@@H](Cc1c[nH]cn1)C(=O)N[C@H](Cc1ccccc1)C(=O)N[C@@H](CCCNC(=N)N)C(=O)N[C@@H](Cc1c[nH]c2ccccc12)C(=O)N[C@@H](CCN)C(N)=O` [Analogue 11], the “Biological Potency Frog” value in the test on Frog (Rana pipiens) Skin [1] is 0.9. Moreover, the “Residual Activity Frog (prolonged action)” value (“Residual Activity Frog” below) in the test with Frog (Rana pipiens) Skin [1] (linear analogues) is “P(-)”. In test [2], the “Biological Potency Lizard” value is reported as 50.0. The “Residual Activity Lizard (prolonged action)” value (“Residual Activity Lizard” below) in test [2] (linear analogues) is “P(-)”.
On to `CCCC[C@H](NC(C)=O)C(=O)N[C@@H](CC(=O)O)C(=O)N[C@@H](Cc1c[nH]cn1)C(=O)N[C@H](Cc1ccccc1)C(=O)N[C@@H](CCCNC(=N)N)C(=O)N[C@@H](Cc1c[nH]c2ccccc12)C(=O)N[C@@H](CN)C(N)=O` [Analogue 12], for which the “Biological Potency Frog” value in the test with Frog (Rana pipiens) Skin [1] was 0.2. Moreover, the “Residual Activity Frog” value in the test with Frog (Rana pipiens) Skin [1] (linear analogues) is “P(-)”. In test [2], the “Biological Potency Lizard” value came to 8.0. In test [2] (linear analogues), the “Residual Activity Lizard” value is “P(-)”.
`CCCC[C@H](NC(C)=O)C(=O)N[C@@H](CCC(=O)O)C(=O)N[C@@H](Cc1c[nH]cn1)C(=O)N[C@@H](Cc1ccccc1)C(=O)N[C@@H](CCCNC(=N)N)C(=O)N[C@@H](Cc1c[nH]c2ccccc12)C(=O)N[C@@H](CCCCN)C(N)=O` [Analogue 13]: the “Biological Potency Frog” value in the test with Frog (Rana pipiens) Skin [1] was determined as 0.001. Besides, the “Residual Activity Frog” value in the test on Frog (Rana pipiens) Skin [1] (linear analogues) is “P(+)”. In addition, in test [2], the “Biological Potency Lizard” value worked out at 0.08. Further, the “Residual Activity Lizard” value in test [2] (linear analogues) is recorded as “P(-)”.
Consider `CCCC[C@H](NC(C)=O)C(=O)N[C@H]1CCC(=O)NCCCC[C@@H](C(=O)NCC(=O)N2CCC[C@H]2C(=O)N[C@H](C(N)=O)C(C)C)NC(=O)[C@H](Cc2c[nH]c3ccccc23)NC(=O)[C@H](CCCNC(=N)N)NC(=O)[C@@H](Cc2ccccc2)NC(=O)[C@H](Cc2c[nH]cn2)NC1=O` [Analogue 15] (Ac-[Nle]EH[dF]RWKGPV-NH2; lactam 2-7), for which the “Residual Activity Frog” value with Frog (Rana pipiens) Skin [1] (cyclic analogues) was “p(+)”. Moreover, in the test on Frog (Rana pipiens) Skin [1] (setting [5]), the “Biological Potency Frog” value stood at 1.0. Moreover, the “Residual Activity Lizard” value in test [2] (cyclic analogues) is listed as “p(+)”. Besides, in test [2] (setting [5]), the “Biological Potency Lizard” value turned out to be 6.0.
Turning to `CCCC[C@H](NC(C)=O)C(=O)N[C@H]1CCC(=O)NCCCC[C@@H](C(N)=O)NC(=O)[C@H](Cc2c[nH]c3ccccc23)NC(=O)[C@H](CCCNC(=N)N)NC(=O)[C@@H](Cc2ccccc2)NC(=O)[C@H](Cc2c[nH]cn2)NC1=O` [Analogue 16], the “Residual Activity Frog” value in the test on Frog (Rana pipiens) Skin [1] (cyclic analogues) was “p(+)”. In the test with Frog (Rana pipiens) Skin [1] (setting [5]), the “Biological Potency Frog” value was 0.5. The “Residual Activity Lizard” value in test [2] (cyclic analogues) is “p(+)”. Further, in test [2] (setting [5]), the “Biological Potency Lizard” value worked out at 9.0.
Regarding `CCCC[C@H](NC(C)=O)C(=O)N[C@H]1CC(=O)NCCC[C@@H](C(N)=O)NC(=O)[C@H](Cc2c[nH]c3ccccc23)NC(=O)[C@H](CCCNC(=N)N)NC(=O)[C@@H](Cc2ccccc2)NC(=O)[C@H](Cc2c[nH]cn2)NC1=O` [Analogue 18], the “Residual Activity Frog” value in the test with Frog (Rana pipiens) Skin [1] (cyclic analogues) was “p(-)”. In addition, in the test on Frog (Rana pipiens) Skin [1] (setting [5]), the “Biological Potency Frog” value was 1.0. The “Residual Activity Lizard” value in test [2] (cyclic analogues) is recorded as “p(-)”. The “Biological Potency Lizard” value in test [2] (setting [5]) was 20.0.
Consider `CCCC[C@H](NC(C)=O)C(=O)N[C@H]1CC(=O)NCC[C@@H](C(N)=O)NC(=O)[C@H](Cc2c[nH]c3ccccc23)NC(=O)[C@H](CCCNC(=N)N)NC(=O)[C@@H](Cc2ccccc2)NC(=O)[C@H](Cc2c[nH]cn2)NC1=O` [Analogue 19], for which, in the test with Frog (Rana pipiens) Skin [1] (cyclic analogues), the “Residual Activity Frog” value was “p(-)”. The “Biological Potency Frog” value in the test with Frog (Rana pipiens) Skin [1] (setting [5]) is reported as 1.0. Besides, the “Residual Activity Lizard” value in test [2] (cyclic analogues) is given as “p(-)”. Also, in test [2] (setting [5]), the “Biological Potency Lizard” value is recorded as 5.0.
With `CCCC[C@H](NC(C)=O)C(=O)N[C@H]1CC(=O)NC[C@@H](C(N)=O)NC(=O)[C@H](Cc2c[nH]c3ccccc23)NC(=O)[C@H](CCCNC(=N)N)NC(=O)[C@@H](Cc2ccccc2)NC(=O)[C@H](Cc2c[nH]cn2)NC1=O` [Analogue 20], the “Residual Activity Frog” value in the test on Frog (Rana pipiens) Skin [1] (cyclic analogues) is “p(-)”. In addition, the “Biological Potency Frog” value in the test with Frog (Rana pipiens) Skin [1] (setting [5]) was 0.01. In addition, the “Residual Activity Lizard” value in test [2] (cyclic analogues) is reported as “p(-)”. Also, in test [2] (setting [5]), the “Biological Potency Lizard” value is listed as 5.0.
Regarding Ac--[Nle^4 ]-alpha-MSH4-10 NH2, the “Relative Potency Frog” value in the test on Frog (Rana pipiens) Skin [3] is listed as 0.002. In addition, in test [4], the “Relative Potency Lizard” value is given as 0.06.
For the compound Ac--[Nle^4 ]-alpha-MSH4-11 NH2, the “Relative Potency Frog” value in the test on Frog (Rana pipiens) Skin [3] was 0.002. The “Relative Potency Lizard” value in test [4] is listed as 1.0.
Consider “Ac--[Nle^4, D--Phe^7 ]-alpha-MSH4-10 NH2”, for which the “Relative Potency Frog” value with Frog (Rana pipiens) Skin [3] is 0.02. In addition, the “Relative Potency Lizard” value in test [4] is given as 10.0.
In the case of Ac--[Nle^4,D--Phe^7 ]-alpha-MSH1-13 NH2, the “Relative Potency Frog” value with Frog (Rana pipiens) Skin [3] is 60.0. Further, the “Relative Potency Lizard” value in test [4] was 5.0.
In the case of “Ac-Met-Glu-His-Phe-Arg-Trp-Gly-NH2 [Ac-alpha-MSH4-10 NH2]”, the “melanocyte stimulating activity in frog skin” value in the test with Frog (Rana pipiens) Skin [3] (compared to the native hormone) was “weak agonist”. Also, in the test with Frog (Rana pipiens) Skin [3], the “Relative Potency Frog” value was 0.0003. Moreover, the “Relative Potency Lizard” value in test [4] was 0.004.
Turning to Ac[Nle^4, D--Phe^7 ]-alpha-MSH4-11 NH2, in the test on Frog (Rana pipiens) Skin [3], the “Relative Potency Frog” value is on record as 0.16. Besides, the “Relative Potency Lizard” value in test [4] is given as 8.0.
